Values of other authors as cited in patent US20260209855A1, “COMPOSITIONS AND METHODS FOR DETECTION AND TREATMENT OF PROSTATE CANCER” (The Regents of the University of California, priority 2022, published 2026).

Assays:
PCa = conditions: result in words
[1] = test system: benign prostatic hyperplasia (BPH); conditions: patients with BPH and AI, treatment prior to BPH diagnosis; result in words
PCa patients = conditions: clinical trials; result in words

In the case of bevacizumab, the “Clinical trial results in the treatment of PCa” value (PCa) is listed as “conflicting results”.

For `CN(Cc1cnc2nc(N)nc(N)c2n1)c1ccc(C(=O)N[C@@H](CCC(=O)O)C(=O)O)cc1` [methotrexate], the “Likelihood to develop BPH” value [1] is given as “did not have this effect”.

B1: siltuximab (antibody, chains of the INN, looked up, V domains shown)
VH: EVQLVESGGKLLKPGGSLKLSCAASGFTFSSFAMSWFRQSPEKRLEWVAEISSGGSYTYYPDTVTGRFTISRDNAKNTLYLEMSSLRSEDTAMYYCARGLWGYYALDYWGQGTSVTVSS
VL: QIVLIQSPAIMSASPGEKVTMTCSASSSVSYMYWYQQKPGSSPRLLIYDTSNLASGVPVRFSGSGSGTSYSLTISRMEAEDAATYYCQQWSGYPYTFGGGTKLEIK
notes: An IL-6 antagonist tested in clinical trials in PCa patients
In the case of B1, the “Clinical efficacy in PCa patients” value (PCa patients) is listed as “no clinical efficacy”.
